Experimental data: patent US9517934B2, “Process for the generation of chlorine dioxide” (The United States of America as Represented by the …, priority 2013, dated 2016)

Key:
[1] = diprotic, cited from earlier work
[2] = test system: Bacillus anthracis Sterne spores; assay type: cell-based; conditions: cotton/nylon fabric, 200, 80, or 40 ppm chlorine dioxide, 10 minutes
[3] = test system: Bacillus amyloliquefaciens spores; assay type: cell-based

Structure (SMILES) | pKa1 ([1]; first dissociation) | pKa2 ([1]; second dissociation) | log reduction of B. anthracis Sterne spores [2] [log reduction] | presence of B. amyloliquefaciens spores after treatment [3]
N=C(N)S(=O)O [FSA, Formamidinesulfinic acid] | ≤ 2 | ~9 |  | 
[O][Cl+][O-] [chlorine dioxide] |  |  | 7.50 | significantly reduced but did not completely eliminate
